The values below come from ChEMBL document CHEMBL1130470, “Novel inhibitors of the prenylated protein methyltransferase reveal distinctive structural requirements” (Bioorg Med Chem Lett, 1997).

Some results are limits rather than exact numbers.

This test in a line: In vitro inhibitory activity against prenylated protein methyltransferase (PPMTase), activity expressed as Ki(inhibitory constant). Set-up: species or system Rattus norvegicus.

One may read the Ki as a measure of affinity in units of concentration, obtained from inhibition or displacement. A low value points to higher affinity. `CC(C)=CCC/C(C)=C/CC/C(C)=C/CSc1c(Cl)cccc1C(=O)O` returned an inhibition constant (Ki) of more than 50 µM.

On to `CC(C)=CCC/C(C)=C/CC/C(C)=C/CC/C(C)=C/CSc1ccccc1C(=O)O`, for which the Ki was more than 50 µM.

Regarding `CC(C)=CCC/C(C)=C/CC/C(C)=C/CSc1ccc(F)cc1C(=O)O`, the affinity corresponds to a Ki of 6.3 µM.

On to `CC(C)=CCC/C(C)=C/CC/C(C)=C/CSc1ccc(Cl)cc1C(=O)O`, for which the inhibitory constant (Ki) turned out to be 8.5 µM.

`CC(C)=CCC/C(C)=C/CC/C(C)=C/CSc1cc(F)ccc1C(=O)O` yielded an inhibition constant (Ki) of 23 µM. This Ki lies about 2.7-fold higher than the previous one.

`CC(C)=CCC/C(C)=C/CC/C(C)=C/CSc1cc(Cl)ccc1C(=O)O` yielded a Ki of 28 µM.

For the molecule `CC(C)=CCC/C(C)=C/CSc1ccccc1C(=O)O`, the Ki is more than 50 µM.

As to `COC(=O)c1ccccc1SC/C=C(\C)CC/C=C(\C)CCC=C(C)C`, the Ki is more than 50 µM.

As to `CC(C)=CCC/C(C)=C/CC/C(C)=C/CSc1ccccc1C(=O)O` [SALIRASIB], the inhibition constant Ki worked out at 2.8 µM.
